Structures can show the parent of a compound that is named as a salt. Where two headings read alike, the source gives them in different places.
Legend:
[1] = test system: Trypanosoma cruzi Strain Y trypomastigotes; assay: Trypanocidal assay: trypomastigotes pre-incubated with test compound, then added to HSVSM cell culture; format: cell-based; conditions: for percent of cells infected relative to untreated control at 0.5 µM / percent of cells infected relative to untreated control at 1 µM / percent of cells infected relative to untreated control at 5 µM / percent of cells infected relative to untreated control at 10 µM: Trypanosoma cruzi, read-out: percentage of cells infected by pre-treated trypomastigotes relative to untreated controls
Protocol: (§1) Human saphenous vein smooth muscle (HSVSM) cells are isolated from outgrowths of explants of unused portions of veins harvested for coronary artery bypass surgery as described previously by Warner et al., J. Exp. Med., 165, 1316-1331 (1987). The cells are maintained in DME medium containing 5.5 mM glucose, 25 mM HEPES and 10% FBS (Hy-Clone Laboratories,Logan, Utah). Trypanosoma cruzi Strain Y trypomastigotes are propagated as described previously by Libby et al., J. Clin. Invest., 77, 127-135 (1986), except that HSVSM cells are used in place of bovine aortic smooth muscle cells.
Test compounds are dissolved in 0.3 ml DMSO and brought to volume by dilution with serum-free DME medium. Solutions are sterilized by filtration through 0.22 μm filter units. Trypomastigotes (10^7 ml^-1) are harvested and washed twice in serum-free DME medium. Parasites are added to solutions of the test compounds to a final concentration of 10^6 ml^-1 and incubated for 3 hours at 37° C. in a 5% CO2 atmosphere. After incubation with the test compound, 0.1 ml of the parasite suspension (10^5 organisms) is diluted with 0.4 ml cell culture medium and added to a culture of HSVSM cells. After 16 hours, the HSVSM cells are washed to remove non-internalized trypomastigotes and resupplied with fresh culture medium. Infections are followed for 4-7 days by light microscopy.
Trypomastigotes were pre-incubated with a test compound or a prior art compound as described above. Results are expressed as the percentage of cells infected by pre-treated trypomastigotes relative to untreated controls.

trypomastigotes = assay: Ongoing infection model in human smooth muscle cells infected with trypomastigotes; format: cell-based, Trypanosoma cruzi; conditions: compound incubated 16 hours, counted 5 days after initial infection, untreated 1.85 × 10^7
Protocol: as §1
The effects of the compounds of the present invention have also been tested in an ongoing infection model. […] The cells are then incubated for 48 hours after which time the test compounds are added to the cultures and incubated for 16 hours. After 16 hours, the treated culture media is replaced with drug-free fresh media and cell culture is continued for a further 24 hours. Levels of parasitemia in the treated and untreated cultures are then examined.
*Number of trypomastigotes/ml counted swimming above the HSVM cell
monolayer 5 days after initial infection.

trypanothione reductase = trypanothione reductase (Crithidia fasciculata, UniProt P39040); assay: Incubation of trypanothione reductase with compound under aerobic and anaerobic conditions, dialysis, then T(S)2 reductase assay; format: biochemical, C. fasciculata; conditions: 0.277778 h, pH 7.8, read-out: loss of T(S)2 reductase activity relative to the aerobic control
Protocol: (§2) Trypanothione disulfide reductase activity is assayed spectrophotometrically by monitoring substrate-dependent oxidation of NADPH at 340 nm. Alternatively, enzyme activity is monitored by coupling radical formation to cytochrome C reduction and measuring absorbance changes (ε550 =21 mM^-1). Absorbance changes are monitored on a spectrophotometer with a thermostated cuvette chamber. Enzyme concentration is measured spectrophotometrically using the extinction coefficient (ε464 =11.3 mM^-1, Shames et al., Biochemistry, 25, 3519-3526 (1986). Kinetic runs are carried out at 27° C. in 0.1M 4-(2-hydroxyethyl)1-piperazineethane sulfonic acid (HEPES) buffer, pH 7.8, containing 0.1 mM EDTA and 0.25 mM NADPH. Anaerobic measurements are performed in rubber stoppered cuvettes that have been flushed repeatedly with helium. All buffers and solutions used in the assays are treated in this manner. Additions to the cuvette are made with a microsyringe piercing the septum.
Assays are carried out in 0.1M HEPES, pH 7.8, containing 1 mM EDTA, 0.15 mM […], 500 pmoles/ml trypanothione reductase and 10 μM nitrofuran VIII. Reactions are started by addition of enzyme (80 μl to a 2 ml assay). Sequential spectra (200-800 nm) are collected at 20 sec intervals using a UV/Vis spectrophotometer. At the end of the experiment, the assay mixtures are dialyzed and trypanothione reductase is assayed using 250 μM T(S)2. […]

[2] = target: trypanothione reductase from C. fasciculata (Crithidia fasciculata, UniProt P39040); assay: Enzymatic reduction of compounds as substrates of trypanothione reductase (NADPH oxidation, cytochrome C coupled assay); format: biochemical; conditions: aerobic
Protocol: FIG. 2 is a graph of the results of the enzymatic reduction of compounds C, D and E of the present invention and comparative prior art compounds as a function of substrate concentration. Relative rates were measured under aerobic conditions by coupling superoxide production to cytochrome C reduction as described.
as §2, with “septum. […]” for “septum.”

[3] = 0.5 μM, 3 hours pre-incubation at 37° C., HSVSM cells
[4] = 1 μM, 3 hours pre-incubation at 37° C., HSVSM cells
[5] = 5 μM, 3 hours pre-incubation at 37° C., HSVSM cells
[6] = 10 μM, 3 hours pre-incubation at 37° C., HSVSM cells

Sequence of trypanothione reductase from C. fasciculata (P39040 whole entry): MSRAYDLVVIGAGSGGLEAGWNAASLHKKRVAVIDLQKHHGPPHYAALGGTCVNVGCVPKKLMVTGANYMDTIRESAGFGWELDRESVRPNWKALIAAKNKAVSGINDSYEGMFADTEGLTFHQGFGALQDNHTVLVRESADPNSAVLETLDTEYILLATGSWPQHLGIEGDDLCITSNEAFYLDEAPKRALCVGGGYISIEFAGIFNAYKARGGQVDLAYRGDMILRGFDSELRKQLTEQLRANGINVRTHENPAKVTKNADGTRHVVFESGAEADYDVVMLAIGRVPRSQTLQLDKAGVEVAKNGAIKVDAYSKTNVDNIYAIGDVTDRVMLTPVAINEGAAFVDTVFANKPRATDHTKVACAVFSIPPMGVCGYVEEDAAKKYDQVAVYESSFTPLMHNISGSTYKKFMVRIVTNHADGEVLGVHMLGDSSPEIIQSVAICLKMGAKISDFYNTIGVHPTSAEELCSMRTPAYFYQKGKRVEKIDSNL
Sequence of trypanothione reductase (P39040 whole entry): as above

Compound	Trypomastigotes/ml counted swimming above the HSVM cell monolayer (trypomastigotes; 1 μM)	Trypomastigotes/ml counted swimming above the HSVM cell monolayer (trypomastigotes; 10 μM)	percent of cells infected relative to untreated control at 0.5 µM ([1]; 3 h)	percent of cells infected relative to untreated control at 1 µM ([1]; 3 h)	percent of cells infected relative to untreated control at 5 µM ([1]; 3 h)	percent of cells infected relative to untreated control at 10 µM ([1]; 3 h)	also measured
CC(CCC1=C(CCC(C)=NNC(=N)N)C(=O)c2ccccc2C1=O)=NNC(=N)N.Cl.Cl [Compound A, 2,3-Bis(3-(2-amidinohydrazono)butyl)-1,4-naphthoquinone dihydrochloride]	4.10 × 10^7 Trypomastigotes/ml	1.35 × 10^7 Trypomastigotes/ml	–	–	–	–	percent of cells infected relative to untreated control at 0.5 µM [1, 3]: 14%; percent of cells infected relative to untreated control at 1 µM [1, 4]: 0%; percent of cells infected relative to untreated control at 5 µM [1, 5]: 0%; percent of cells infected relative to untreated control at 10 µM [1, 6]: 0%
N=C(NCCCN1CCN(CCCNC(=N)NN=Cc2ccc([N+](=O)[O-])o2)CC1)NN=Cc1ccc([N+](=O)[O-])o1 [Compound E, 2,2'-Bis(5-nitro-2-furanylmethylidene)-N,N'-[1,4-piperazinediylbis(3,1-propanediyl)]-bishydrazinecarboximidamide tetrahydrobromide]	1.85 × 10^7 Trypomastigotes/ml	2.85 × 10^7 Trypomastigotes/ml	100%	0%	0%	0%	inhibition at 10 µM (trypanothione reductase): 93%
2-(5-Nitro-2-furanylmethylidene)-N-[3-(4-methylpiperidin-1-yl)propyl]hydrazinecarboximidamide trihydrobromide [Compound D]	1.80 × 10^7 Trypomastigotes/ml	< 2.00 × 10^4 Trypomastigotes/ml	–	–	–	–	percentage of cells infected by pre-treated trypomastigotes relative to untreated controls [1, 3]: 64%; percentage of cells infected by pre-treated trypomastigotes relative to untreated controls [1, 4]: 35%; percentage of cells infected by pre-treated trypomastigotes relative to untreated controls [1, 5]: 0%; percentage of cells infected by pre-treated trypomastigotes relative to untreated controls [1, 6]: 0%
NC(=O)N/N=C/c1ccc([N+](=O)[O-])o1 [nitrofurazone]	–	–	–	–	–	–	trypanothione reductase-catalyzed reduction monitored by NADPH oxidation [2]: could be detected
N=C(N)NN=Cc1ccc([N+](=O)[O-])o1 [Guanofuracin, reference compound]	–	–	100%	45%	0%	0%	–
CC1CS(=O)(=O)CCN1/N=C/c1ccc([N+](=O)[O-])o1 (stereo not drawn) [Nifurtimox, reference compound]	–	–	100%	100%	10%	4%	trypanothione reductase-catalyzed reduction monitored by NADPH oxidation [2]: could be detected
CC(CCC1=C(C)C(=O)c2ccccc2C1=O)=NNC(=N)N [Compound B, hydrochloride]	–	–	–	–	–	–	percent of cells infected relative to untreated control at 0.5 µM [1, 3]: 100%; percent of cells infected relative to untreated control at 1 µM [1, 4]: 100%; percent of cells infected relative to untreated control at 5 µM [1, 5]: 21%; percent of cells infected relative to untreated control at 10 µM [1, 6]: 8%
